Measurements published in BindingDB's records for doi:10.7270/Q2MC8XNQ (Burnham Center For Chemical Genomics, 2012).

Target: T1, Sentrin-specific protease 1 (Homo sapiens, UniProt Q9P0U3)
T1 sequence (Q9P0U3 whole entry): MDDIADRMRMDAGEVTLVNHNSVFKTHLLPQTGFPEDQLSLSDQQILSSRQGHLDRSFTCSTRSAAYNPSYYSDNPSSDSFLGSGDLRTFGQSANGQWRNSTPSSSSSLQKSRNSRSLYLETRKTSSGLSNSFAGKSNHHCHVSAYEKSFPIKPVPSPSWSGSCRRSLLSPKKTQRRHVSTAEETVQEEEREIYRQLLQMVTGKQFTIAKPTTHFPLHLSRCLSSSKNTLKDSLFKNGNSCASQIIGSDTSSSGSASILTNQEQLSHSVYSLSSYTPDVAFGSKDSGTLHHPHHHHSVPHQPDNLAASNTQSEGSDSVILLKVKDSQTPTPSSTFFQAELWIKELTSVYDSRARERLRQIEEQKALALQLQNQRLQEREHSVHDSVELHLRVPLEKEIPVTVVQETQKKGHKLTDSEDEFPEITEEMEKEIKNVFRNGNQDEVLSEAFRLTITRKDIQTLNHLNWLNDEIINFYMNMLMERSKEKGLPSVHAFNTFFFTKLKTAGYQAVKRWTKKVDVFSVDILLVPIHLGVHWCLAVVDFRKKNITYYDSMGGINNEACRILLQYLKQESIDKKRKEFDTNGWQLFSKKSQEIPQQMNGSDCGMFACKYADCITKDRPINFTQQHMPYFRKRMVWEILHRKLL

SMILES: COc1ccc(OC)c(CCNC(=O)c2ccc3c(=O)[nH]c4c(C(=O)NC(C)C)sc(=S)n4c3c2)c1
- IC50: > 80 µM

SMILES: O=C1CC(=O)c2cccc3cccc1c23 [3-hydroxy-1H-phenalen-1-one]
- IC50: 13.1 µM

SMILES: O=[N+]([O-])c1ccc(C/N=N/c2ccccc2)cc1
- IC50: 21.5 µM

SMILES: CCOc1cc(C=c2[nH]c3n(c2=O)CCCCC=3)ccc1O [MLS000774439]
- IC50: 9.57 µM

SMILES: COc1nccnc1NS(=O)(=O)c1ccc(NC(=S)NC(=O)c2ccc(F)cc2)cc1 [4-[3-(4-Fluoro-benzoyl)-thioureido]-N-(3-methoxy-pyrazin-2-yl)-benzenesulfonamide]
- IC50: 11.6 µM

SMILES: COc1ccc(-n2c(O)c3c(c2O)C(C(=O)c2ccc(Cl)cc2)N2CCCC32)cc1 (stereo unspecified)
- IC50: 5.56 µM

SMILES: CCN1C(=O)c2cccc3c(NC(=O)c4cccc(-n5c(O)ccc5O)c4)ccc1c23 [3-(2,5-dioxopyrrolidin-1-yl)-N-(1-ethyl-2-oxobenzo[cd]indol-6-yl)benzamide]
- IC50: 17.9 µM

SMILES: O=C1CCCC2=Nc3cc(Cl)ccc3SC12 (stereo unspecified) [MLS000333002]
- IC50: 13.7 µM

SMILES: O=C1NC(=S)N/C1=C/c1cccc([N+](=O)[O-])c1O [(5E)-5-[(2-hydroxy-3-nitrophenyl)methylidene]-2-sulfanylideneimidazolidin-4-one]
- IC50: > 80 µM

SMILES: O=C1CC(=Nc2ccc(Cl)cc2)C(=O)N1c1ccc(Cl)cc1 [1-(4-chlorophenyl)-3-[(4-chlorophenyl)amino]pyrrole-2,5-dione]
- IC50: 21 µM

SMILES: O=C(Cc1cccc2ccccc12)NC(NC(=S)Nc1ccccc1Cl)C(Cl)(Cl)Cl (stereo unspecified) [2-(1-naphthyl)-N-[2,2,2-trichloro-1-({[(2-chlorophenyl)amino]carbonothioyl}amino)ethyl]acetamide]
- IC50: 8.36 µM

SMILES: Oc1c2c(c(O)n1-c1ccccn1)C(c1ccccc1)C=CC2c1ccccc1 (stereo unspecified) [4,7-diphenyl-2-pyridin-2-yl-3a,4,7,7a-tetrahydroisoindole-1,3-dione]
- IC50: 10.8 µM

SMILES: Nc1ccc2c(c1)C(N=O)c1cc([N+](=O)[O-])ccc1-2 (stereo unspecified) [N-(2-azanyl-7-nitro-fluoren-9-ylidene)hydroxylamine]
- IC50: 18.1 µM

SMILES: CN(C)c1ccc(C=NNC(=O)C(=O)CC2=NC3(CCCC3)Cc3ccccc32)cc1 [MLS000589038]
- IC50: 10.1 µM

SMILES: CCOC1=CC(=Cc2sc(=O)[nH]c2N)C=CC1=O
- IC50: 10.9 µM

SMILES: N#CC1C(=N)Oc2cc(Nc3ccccc3)ccc2C1c1ccncc1 (stereo unspecified) [2-amino-7-anilino-4-pyridin-4-yl-4H-1-benzopyran-3-carbonitrile]
- IC50: 41.9 µM

SMILES: O=NC1c2cc([N+](=O)[O-])ccc2-c2cc(Cl)c(NC(=O)C(F)(F)F)cc21 (stereo unspecified) [MLS002707326]
- IC50: 12.5 µM

SMILES: CCN(CC)CCNc1cccc2sc3ccccc3c(=O)c12 [SMR001821489]
- IC50: > 80 µM

SMILES: O=C(O)c1ccc(N=NCc2cccc3nccnc23)cc1 [4-[(2E)-2-(5-quinoxalinylmethylidene)hydrazinyl]benzoic acid]
- IC50: 15.1 µM

SMILES: CCOC(=O)/C(C#N)=C/C=C1\C=Cc2ccccc2N1CC [(E,4E)-2-cyano-4-(1-ethyl-2-quinolinylidene)-2-butenoic acid ethyl ester]
- IC50: > 80 µM

SMILES: COc1ccc(-n2c(O)c3c(c2O)C(C(=O)c2ccccc2)N2CCCC32)cc1 (stereo unspecified) [MLS000762485]
- IC50: 31 µM

SMILES: CC1=C(C#N)C(=O)NC(=O)C1=NNc1ccc(Br)cc1C(=O)O [MLS001213177]
- IC50: 18.1 µM

SMILES: COc1ccc(C=Nn2c(O)csc2=S)cc1Br [3-[(E)-(3-bromo-4-methoxyphenyl)methylideneamino]-2-sulfanylidene-4-thiazolidinone]
- IC50: 19.3 µM

SMILES: Nc1cc([N+](=O)[O-])ccc1Nc1ccccc1 [SMR000271721]
- IC50: > 80 µM

SMILES: CC(=O)Oc1ccc(-n2c(O)c3c(c2O)C(C(=O)c2ccc(Cl)cc2)N2CCCC32)cc1 (stereo unspecified) [Acetic acid 4-[4-(4-chloro-benzoyl)-1,3-dioxo-octahydro-pyrrolo[3,4-a]pyrrolizin-2-yl]-phenyl ester]
- IC50: 7.5 µM

SMILES: CC1(C)CC(=O)C2Sc3ccccc3N=C2C1 (stereo unspecified) [2,2-Dimethyl-2,3-dihydro-1H,10H-phenothiazin-4-one]
- IC50: 29 µM
